According to patent US20220017572A1, “GEMINOID LIPOPEPTIDE COMPOUNDS AND THEIR USES” (Erasmus University Medical Center Rotterdam, priority 2016, published 2022):
Residues, ends and D or L forms follow the SMILES beside them.

How the values were obtained:
trypsin = target: T1, trypsin (Bos taurus, UniProt P00760); assay: Trypsin inhibition, fluorimetric enzyme assay; type: biochemical
T1 construct: gene PRSS1
T1 sequence (P00760 24-246): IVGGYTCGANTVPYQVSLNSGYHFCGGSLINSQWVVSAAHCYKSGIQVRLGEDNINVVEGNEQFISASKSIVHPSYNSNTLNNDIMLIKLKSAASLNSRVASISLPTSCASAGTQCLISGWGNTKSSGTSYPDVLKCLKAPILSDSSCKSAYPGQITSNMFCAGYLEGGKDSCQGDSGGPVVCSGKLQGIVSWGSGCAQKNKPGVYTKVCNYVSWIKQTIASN
Experimental: (§1) The enzyme was dissolved in 1 mL MES buffer (10 mM), 1 mM CaCl2, pH 7.0 at 36.5° C. Substrate was added in a concentration 10 times the Km, and the inhibitor compounds of type C (C16-KGnK-C16, C16-KAnK-C16, and C16-RAnR-C16) were added in increasing concentrations (1.0, 5.0, 10.0, 20.0, 40.0 μL) from a stock solution of 2 mg in 1 mL DMSO. The residual activity was measured in a Hitachi F2500 spectrofluorimeter, and plots were fitted using the Grafit® software (Erithracus Software, Horley, Surrey, UK). All the assays were calculated by the Morrison equation for competitive inhibition (eq. 1, [Morrison, 1969]). The amount of substrate used for the tight binding titration experiments follow all the requirements, where [S]<<Km for all enzymes, so the Kiapp=Ki.
(§2) The first group of gemini-like peptide amphiphiles to be screened was that of C16-K(G or A)nK-C16 (compound type C, with R1=n-C15H31, R2=n-C16H33). […] The results of the Ki determination for trypsin, dengue 2 protease, and human furin are given in Table 1A; some general data for the inhibition by this type of compounds are given in Table 1B. For most compounds in Table 1 the Ki could be derived from competitive inhibition experiments. Judging from the Ki values with the relatively simple substrate Z-RR-MCA, the best inhibitors for dengue 2 protease contain alanine (A) rather than glycine (G).

dengue 2 protease [1] = target: T2, dengue 2 protease (Dengue virus type 2, UniProt P14340); assay: Dengue 2 protease inhibition, hydrolysis of Z-RR-MCA; type: biochemical, dengue 2 virus; parameters: Activity with inhibitors: unit not given here; conditions: for activity at 5 µM: 5 μM inhibitor; for activity at 10 µM: 10 μM inhibitor; for activity at 15 µM: 15 μM inhibitor; for activity at 40 µM: 40 μM inhibitor
T2 construct: The active site of the dengue protease is in the N-terminal part of NS3
T2 sequence (P14340 1476-1653): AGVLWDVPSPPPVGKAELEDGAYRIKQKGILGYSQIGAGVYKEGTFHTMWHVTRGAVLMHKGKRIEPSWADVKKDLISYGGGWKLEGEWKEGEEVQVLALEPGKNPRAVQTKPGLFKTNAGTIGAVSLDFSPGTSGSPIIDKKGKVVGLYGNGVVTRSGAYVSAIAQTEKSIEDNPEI

human furin = human furin (Homo sapiens, UniProt P09958); assay: Human furin inhibition, hydrolysis of Ac-RVRR-MCA; type: biochemical; conditions: for activity at 5 µM: 5 μM inhibitor; for activity at 10 µM: 10 μM inhibitor; for activity at 15 µM: 15 μM inhibitor; for activity at 40 µM: 40 μM inhibitor
human furin, sequence (P09958 108-794): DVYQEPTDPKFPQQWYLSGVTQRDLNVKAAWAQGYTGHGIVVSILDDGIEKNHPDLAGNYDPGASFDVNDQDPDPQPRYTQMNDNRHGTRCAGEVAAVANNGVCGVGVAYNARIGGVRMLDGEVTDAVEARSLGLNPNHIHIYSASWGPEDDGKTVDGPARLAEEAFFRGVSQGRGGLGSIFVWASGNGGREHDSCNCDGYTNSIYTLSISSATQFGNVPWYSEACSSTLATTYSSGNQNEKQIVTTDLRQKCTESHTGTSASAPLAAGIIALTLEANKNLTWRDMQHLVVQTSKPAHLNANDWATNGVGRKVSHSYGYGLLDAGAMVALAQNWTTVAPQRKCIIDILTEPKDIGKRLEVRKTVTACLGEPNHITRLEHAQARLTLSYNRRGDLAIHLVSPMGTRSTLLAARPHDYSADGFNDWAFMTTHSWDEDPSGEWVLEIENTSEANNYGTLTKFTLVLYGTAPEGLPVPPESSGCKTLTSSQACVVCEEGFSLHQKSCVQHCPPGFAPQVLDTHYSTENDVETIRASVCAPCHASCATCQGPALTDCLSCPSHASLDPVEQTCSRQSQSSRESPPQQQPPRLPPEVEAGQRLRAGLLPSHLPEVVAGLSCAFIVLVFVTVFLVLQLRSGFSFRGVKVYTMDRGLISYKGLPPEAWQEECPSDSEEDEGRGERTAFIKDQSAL
Experimental: as §1
However, for furin we used a correction of Ki app, where [S]˜Km (eq. 2).
Range of Proteases Inhibited by Geminoids, Determination of Ki with Z-RR-MCA (Dengue 2 Protease) and Ac-RVRR-MCA (Furin) (SEQ ID NO:60).

thrombin = thrombin (Homo sapiens, UniProt P00734); assay: Thrombin inhibition, fluorimetric enzyme assay; type: biochemical; conditions: 36.5° C., read-out: Residual Activity (%) Thrombin
Experimental: as §1, with “Kiapp=Ki. […]” for “Kiapp=Ki.”

plasmin = plasmin (Homo sapiens, UniProt P00747); assay: Plasmin inhibition, fluorimetric enzyme assay; type: biochemical; conditions: 36.5° C., read-out: Residual Activity (%) Plasmin
plasmin, sequence (P00747 581-810 limits assumed, species assumed): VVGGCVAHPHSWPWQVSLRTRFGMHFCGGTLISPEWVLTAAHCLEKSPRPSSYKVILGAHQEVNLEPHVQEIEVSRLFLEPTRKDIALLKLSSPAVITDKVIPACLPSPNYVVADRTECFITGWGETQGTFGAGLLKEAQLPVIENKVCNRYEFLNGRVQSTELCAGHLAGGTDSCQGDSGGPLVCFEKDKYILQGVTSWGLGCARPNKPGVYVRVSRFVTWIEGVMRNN
plasmin, sequence (P00747 97-580 partner limits assumed, species assumed): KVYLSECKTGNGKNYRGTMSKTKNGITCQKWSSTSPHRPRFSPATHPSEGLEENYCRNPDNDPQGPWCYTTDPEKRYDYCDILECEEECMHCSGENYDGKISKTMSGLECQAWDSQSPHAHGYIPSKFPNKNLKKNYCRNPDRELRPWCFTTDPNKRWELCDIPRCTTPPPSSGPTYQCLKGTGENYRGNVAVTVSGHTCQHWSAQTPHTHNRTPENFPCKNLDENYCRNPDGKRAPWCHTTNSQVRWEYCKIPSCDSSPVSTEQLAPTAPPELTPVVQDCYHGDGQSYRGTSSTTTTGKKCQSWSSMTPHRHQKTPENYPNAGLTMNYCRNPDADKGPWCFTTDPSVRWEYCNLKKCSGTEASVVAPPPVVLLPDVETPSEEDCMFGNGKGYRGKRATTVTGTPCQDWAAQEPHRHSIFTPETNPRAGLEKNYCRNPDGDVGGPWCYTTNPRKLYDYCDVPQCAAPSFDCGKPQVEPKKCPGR
Experimental: as §1, §2

dengue 2 protease [2] = target: T2, dengue 2 protease; assay: Dengue 2 protease inhibition in presence of Triton X-100 (detergent test, Nature Protocol); type: biochemical, dengue 2 virus; conditions: 0.05% Triton X-100; for Activity with 0.05% Triton: initial activity in UAF/min
Text: A further investigation of the interactions of the geminoid inhibitors with biological membranes and with membrane-bound proteases is needed. […] The preparation and tests of peptides symmetrically, asymmetrically and singly alkylated with saturated, short (C6), and unsaturated (C18:1) alkyl tails are in progress.

DENV2 protease replicon = DENV2 protease replicon assay; type: cell-based; conditions: lowest concentration with observed activity in replicon assay
DENV2 protease = target: T3, DENV2 protease (Dengue virus type 2, UniProt P14340); assay: DENV2 protease biochemical assay; conditions: 50 μM inhibitor
T3 construct: The active site of the dengue protease is in the N-terminal part of NS3
T3 sequence (P14340 1476-1653): as the sequence (P14340 1476-1653) above
T3 sequence (P14340 1398-1437): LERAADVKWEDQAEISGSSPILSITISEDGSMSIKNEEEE

SMILES: CCCCCCCCCCCCCCCCNC(=O)[C@H](CCCCN)NC(=O)[C@H](C)NC(=O)[C@H](CCCCN)NC(=O)CCCCCCCCCCCCCCC [C16-KAK-C16]
- Ki (trypsin): 15.2 µM
- remaining activity at 15 µM (trypsin; 15 μM inhibitor, 36.5° C., read-out: Residual Activity (%) Trypsin): 68%
- remaining activity at 40 µM (trypsin; 40 μM inhibitor, 36.5° C., read-out: Residual Activity (%) Trypsin): 35%
- remaining activity at 80 µM (trypsin; 80 μM inhibitor, 36.5° C., read-out: Residual Activity (%) Trypsin): 21%
- Ki (dengue 2 protease [1]): 0.37 µM
- activity at 2.5 µM (dengue 2 protease [1]; 2.5 μM inhibitor, 36.5° C.): 87%
- activity at 5 µM (dengue 2 protease [1]; 36.5° C.): 66%
- activity at 10 µM (dengue 2 protease [1]; 36.5° C.): 26%
- activity at 15 µM (dengue 2 protease [1]; 36.5° C.): 15%
- activity at 40 µM (dengue 2 protease [1]; 36.5° C.): 6%
- activity at 2.5 µM (human furin; 2.5 μM inhibitor, 36.5° C.): 43%
- activity at 5 µM (human furin; 36.5° C.): 30%
- activity at 10 µM (human furin; 36.5° C.): 10%
- activity at 15 µM (human furin; 36.5° C.): 0%
- activity at 40 µM (human furin; 36.5° C.): 0%
- Ki (human furin; 10 mM Mes.NaOH, pH 7.0, 2.35 μM Ac-RVRR-MCA, 37° C., read-out: Ki hFurin): 540 nM
- remaining activity at 15 µM (thrombin; 15 μM inhibitor): 80%
- remaining activity at 40 µM (thrombin; 40 μM inhibitor): 64%
- remaining activity at 80 µM (thrombin; 80 μM inhibitor): 42%
- remaining activity at 15 µM (plasmin; 15 μM inhibitor): 62%
- remaining activity at 40 µM (plasmin; 40 μM inhibitor): 20%
- remaining activity at 80 µM (plasmin; 80 μM inhibitor): 3%
- % recovery in presence of Triton (dengue 2 protease [2]; 30 μM of inhibitor): 41%
- Activity with 0.05% Triton (dengue 2 protease [2]; 30 μM of inhibitor): 91
- Replicon activity [μM] (1) (DENV2 protease replicon): 0.3 µM
- inhibition at 50 µM (DENV2 protease): 106%

SMILES: CCCCCCCCCCCCCCCCNC(=O)[C@H](CCCCN)NC(=O)CNC(=O)CNC(=O)[C@H](CCCCN)NC(=O)CCCCCCCCCCCCCCC [C16-KGGK-C16, C15H31CO-KGGK-NH—C16H33] (HELM PEPTIDE1{[CCCCCCCCCCCCCCCC(=O)[*:2]].K.G.G.K.[CCCCCCCCCCCCCCCCN[*:1]]}$$$$V2.0)
- remaining activity at 18 µM (trypsin; 18 μM inhibitor, 36.5° C., read-out: Residual Activity (%) Trypsin): 79%
- remaining activity at 55 µM (trypsin; 55 μM inhibitor, 36.5° C., read-out: Residual Activity (%) Trypsin): 45%
- remaining activity at 85 µM (trypsin; 85 μM inhibitor, 36.5° C., read-out: Residual Activity (%) Trypsin): 24%
- Ki (dengue 2 protease [1]): 5.75 µM
- activity at 5 µM (dengue 2 protease [1]; 36.5° C.): 88%
- activity at 10 µM (dengue 2 protease [1]; 36.5° C.): 84%
- Activity with inhibitors (dengue 2 protease [1]; 10 μM of inhibitor, 10 μM Z-RR-MCA, pH 9.0, 37° C., initial activity in UAF/min): 10
- activity at 15 µM (dengue 2 protease [1]; 36.5° C.): 76%
- activity at 20 µM (dengue 2 protease [1]; 20 μM inhibitor, 36.5° C.): 70%
- activity at 40 µM (dengue 2 protease [1]; 36.5° C.): 64%
- activity at 5 µM (human furin; 36.5° C.): 94%
- activity at 10 µM (human furin; 36.5° C.): 85%
- activity at 15 µM (human furin; 36.5° C.): 76%
- activity at 20 µM (human furin; 20 μM inhibitor, 36.5° C.): 67%
- activity at 40 µM (human furin; 36.5° C.): 3%
- remaining activity at 18 µM (thrombin; 18 μM inhibitor): 78%
- remaining activity at 55 µM (thrombin; 55 μM inhibitor): 46%
- remaining activity at 85 µM (thrombin; 85 μM inhibitor): 33%
- remaining activity at 18 µM (plasmin; 18 μM inhibitor): 30%
- remaining activity at 55 µM (plasmin; 55 μM inhibitor): 11%
- remaining activity at 85 µM (plasmin; 85 μM inhibitor): 4%
- % recovery in presence of Triton (dengue 2 protease [2]; 10 μM of inhibitor): 73%
- Activity with 0.05% Triton (dengue 2 protease [2]; 10 μM of inhibitor): 160
- Replicon activity [μM] (1) (DENV2 protease replicon): 0.3 µM
- inhibition at 50 µM (DENV2 protease): 104%
